Consider 43 substances from paper PMC2254445, “Statistical learning of peptide retention behavior in chromatographic separations: a new kernel-based approach for computational proteomics” (BMC Bioinformatics, 2007).

The first data set can be described thus: Peptide retention time in capillary IP-RP-HPLC with ESI-MS detection. Format: physicochemical. Conditions: vds1 (verified peptides, tryptic digest of protein mixture 1), 50 × 0.2 mm monolithic poly-(styrene/divinylbenzene) column, gradient 0–40% acetonitrile in 0.05% (v/v) aqueous trifluoroacetic acid in 60 min, 55°C, 2 μl/min, in s (unit assumed). From the text:
The datasets for training and evaluation of the retention time predictor had to fulfill two basic requirements. First, the identity of the studied peptides had to be known with high certainty in order to avoid incorrect sequence annotations for the training dataset, and second, retention times had to be measured with high reproducibility. Altogether, we measured 19 different proteins, which were purchased from Sigma (St. Louis, MO) or Fluka (Buchs, Switzerland). To avoid excessive overlapping of peptides in the chromatographic separations, the proteins were divided into three artificial protein mixtures and subsequently digested using trypsin (Promega, Madison, WI) using published protocols. The protein mixtures contained the following proteins in concentrations between 0.4 – 3.2 pmol/μl:
Mixture 1: β-casein (bovine milk), conalbumin (chicken egg white), myelin basic protein (bovine), hemoglobin (human), leptin (human), creatine phosphokinase (rabbit muscle), α1-acid-glycoprotein (human plasma), albumin (bovine serum). […]
Adding albumin to each protein mixture was performed because in each run, there had to be an identical set of peptides to normalize the retention times. The resulting peptide mixtures were then separated using capillary IP-RP-HPLC and subsequently identified by electrospray ionization mass spectrometry (ESI-MS) as described in detail in [37, 38]. The separations were carried out in a capillary/nano HPLC system (Model Ultimate 3000, Dionex Benelux, Amsterdam, The Netherlands) using a 50 × 0.2 mm monolithic poly-(styrene/divinylbenzene) column (Dionex Benelux) and a gradient of 0–40% acetonitrile in 0.05% (v/v) aqueous trifluoroacetic acid in 60 min at 55°C. The injection volume was 1 μl, and each digest was analyzed in triplicate at a flow rate of 2 μl/min. On-line ESI-MS detection was carried out with a quadrupole ion-trap mass spectrometer (Model esquire HCT, Bruker Daltonics, Bremen, Germany).
Peptides were identified on the basis of their tandem mass spectra (maximum allowed mass deviations: precursor ions: ± 1.3 Da, fragment ions: ± 0.3 Da) using Mascot (version 2.1.03). The database was the Mass Spectrometry Database, MSDB (version 2005-02-27) restricted to chordata (vertebrates and relatives). We allowed one missed cleavage as well as charges 1+, 2+ and 3+. The mass values were monoisotopic. The significance level of the significance threshold score for the peptide hits was 0.05. Since the amino acid sequences of the 19 proteins of our mixtures are known, we could verify the identifications by sequence comparison with the protein sequences. To avoid random verifications, we restricted the peptide length to be equal or greater than six. The whole process led to two datasets for each protein mixture – one which only contained the verified peptides and the other one with all Mascot identifications. In this paper, we call the datasets containing the verified peptide sequences vds and the datasets with all Mascot identifications ds. The vdss are used to train the predictors and the dss are used to access the classification performance of the identification process.
We chose two standard peptides which were identified in all of the runs. One of these peptides, which had the amino acid sequence TCVADESHAGCEK, eluted very early and the other one, which had the amino acid sequence MPCTEDYLSLILNR, eluted very late. We scaled the retention times linearly so that the early eluting peptide got an NRT of 0.1 and the late eluting peptide an NRT of 0.9. All peptides with an NRT below zero or above 1 were removed. The lists of identified peptides of vds1, vds2 and vds3, together with their respective retention times, are available as Additional files 1, 2 and 3 in the supplementary material.
With “YICDNQDTISSK [verified tryptic peptide, vds1]”, the observed retention time was 404.

Consider “ECCDKPLLEK [verified tryptic peptide, vds1]”, for which the observed retention time was found to be 459. Still for that read-out and setting: the result for “GACLLPK [verified tryptic peptide, vds1]” reads 453.

In the case of “SHCIAEVEK [verified tryptic peptide, vds1]”, the observed retention time is 238. For “WSVVSNGDVECTVVDETK [verified tryptic peptide, vds1]”, the observed retention time is reported as 1250. As to “MPCTEDYLSLILNR [late eluting standard peptide identified in all runs; verified tryptic peptide, vds1]”, the observed retention time is listed as 1821. On the same count and under the same terms, the result for “KSCHTAVGR [verified tryptic peptide, vds1]” reads 59.

For the substance “DKCEPLEK [verified tryptic peptide, vds1]”, the observed retention time was 129. Turning to “LCQLCQGSGGIPPEK [verified tryptic peptide, vds1]”, the observed retention time was 855. On the same count and under the same terms, the result for “DDPHACYSTVFDK [verified tryptic peptide, vds1]” reads 809; that for “ECCHGDLLECADDR [verified tryptic peptide, vds1]”, 700; that for “GTFAALSELHCDK [verified tryptic peptide, vds1]”, 1028. On the same count and under the same terms, the same measure for “ETYGDMADCCEK [verified tryptic peptide, vds1]”: 490; for “NAPYSGYSGAFHCLK [verified tryptic peptide, vds1]”: 1104; for “IQWCAVGK [verified tryptic peptide, vds1]”: 727. As to “TCVADESHAGCEK [early eluting standard peptide identified in all runs; verified tryptic peptide, vds1]”, the observed retention time is 148. Take “FFSASCVPGATIEQK [verified tryptic peptide, vds1]”: the observed retention time is on record as 1189. Consider “TCNPSDILQMCSFLEGK [verified tryptic peptide, vds1]”, for which the observed retention time was 1877. Regarding “ECNLAEVPTHAVVVRPEK [verified tryptic peptide, vds1]”, the observed retention time stood at 1126. On the same count and under the same terms, the same measure for “DDPHACYSTVFDKLK [verified tryptic peptide, vds1]”: 1174; for “EQLGEFYEALDCLRIPK [verified tryptic peptide, vds1]”: 1949. The same measure, in the same setting: the same measure for “YNGVFQECCQAEDK [verified tryptic peptide, vds1]”: 775. The same measure, in the same setting: the same measure for “TGTCNFDEYFSEGCAPGSPPNSR [verified tryptic peptide, vds1]”: 1370.

As for “RPCFSALTPDETYVPK [verified tryptic peptide, vds1]”, the observed retention time was determined as 1337. The same measure, in the same setting: the result for “DVCKNYQEAK [verified tryptic peptide, vds1]” reads 119. For “TSCHTGLGR [verified tryptic peptide, vds1]”, the observed retention time turned out to be 76. Turning to CLDGSR [verified tryptic peptide, vds1], the observed retention time was 169. Still for that read-out and setting: the result for “VGGHAAEYGAEALER [verified tryptic peptide, vds1]” reads 643. The same measure, in the same setting: the same measure for “EYEATLEECCAK [verified tryptic peptide, vds1]”: 628; for “LRCASIQK [verified tryptic peptide, vds1]”: 221.

On to “EQLGEFYEALDCLR [verified tryptic peptide, vds1]”, for which the observed retention time came to 1723.

Turning to “SLHTLFGDELCK [verified tryptic peptide, vds1]”, the observed retention time came out at 1196. On to “GTFAALSELHCDKLHVDPENFK [verified tryptic peptide, vds1]”, for which the observed retention time is recorded as 1645.

Turning to “WCTISSPEEK [verified tryptic peptide, vds1]”, the observed retention time stood at 697. For “CCTESLVNR [verified tryptic peptide, vds1]”, the observed retention time turned out to be 360. Same read-out and setting: the same measure for “NLQMDDFELLCTDGRR [verified tryptic peptide, vds1]”: 1522. With “LFTFHADICTLPDTEK [verified tryptic peptide, vds1]”, the observed retention time was 1608.

Turning to “DEYELLCLDGSR [verified tryptic peptide, vds1]”, the observed retention time is listed as 1144. Regarding “NLQMDDFELLCTDGR [verified tryptic peptide, vds1]”, the observed retention time came to 1581. In the case of “NECFLSHKDDSPDLPK [verified tryptic peptide, vds1]”, the observed retention time came to 944. Regarding “CCTKPESER [verified tryptic peptide, vds1]”, the observed retention time was 47. On to “LKPDPNTLCDEFK [verified tryptic peptide, vds1]”, for which the observed retention time was found to be 1112. As for “GYTLPPHCSR [verified tryptic peptide, vds1]”, the observed retention time was 543.

The same data set, now with this note: vds1 (verified peptides, tryptic digest of protein mixture 1), 50 × 0.2 mm monolithic poly-(styrene/divinylbenzene) column, gradient 0–40% acetonitrile in 0.05% (v/v) aqueous trifluoroacetic acid in 60 min, 55°C, 2 μl/min, retention times scaled linearly so that TCVADESHAGCEK = 0.1 and MPCTEDYLSLILNR = 0.9.
As to “YICDNQDTISSK [verified tryptic peptide, vds1]”, the “normalized retention time (NRT)” value is given as 0.2223. As to “ECCDKPLLEK [verified tryptic peptide, vds1]”, the “normalized retention time (NRT)” value was found to be 0.2486.

Turning to “GACLLPK [verified tryptic peptide, vds1]”, the “normalized retention time (NRT)” value is recorded as 0.2458.

Turning to “SHCIAEVEK [verified tryptic peptide, vds1]”, the “normalized retention time (NRT)” value was determined as 0.1429. For “WSVVSNGDVECTVVDETK [verified tryptic peptide, vds1]”, the “normalized retention time (NRT)” value was determined as 0.6268.

“KSCHTAVGR [verified tryptic peptide, vds1]”: the “normalized retention time (NRT)” value is given as 0.05729. In the case of “DKCEPLEK [verified tryptic peptide, vds1]”, the “normalized retention time (NRT)” value worked out at 0.09093. The same measure, in the same setting: the result for “LCQLCQGSGGIPPEK [verified tryptic peptide, vds1]” reads 0.4382; that for “DDPHACYSTVFDK [verified tryptic peptide, vds1]”, 0.4159.

As to “ECCHGDLLECADDR [verified tryptic peptide, vds1]”, the “normalized retention time (NRT)” value was found to be 0.364. Take “GTFAALSELHCDK [verified tryptic peptide, vds1]”: the “normalized retention time (NRT)” value came out at 0.5207. Turning to “ETYGDMADCCEK [verified tryptic peptide, vds1]”, the “normalized retention time (NRT)” value came out at 0.2635. For “NAPYSGYSGAFHCLK [verified tryptic peptide, vds1]”, the “normalized retention time (NRT)” value came out at 0.5571.

For the substance “IQWCAVGK [verified tryptic peptide, vds1]”, the “normalized retention time (NRT)” value came to 0.3767.

Consider “FFSASCVPGATIEQK [verified tryptic peptide, vds1]”, for which the “normalized retention time (NRT)” value was found to be 0.5977. The same measure, in the same setting: the result for “TCNPSDILQMCSFLEGK [verified tryptic peptide, vds1]” reads 0.9271. With “ECNLAEVPTHAVVVRPEK [verified tryptic peptide, vds1]”, the “normalized retention time (NRT)” value came to 0.5677. As to “DDPHACYSTVFDKLK [verified tryptic peptide, vds1]”, the “normalized retention time (NRT)” value came out at 0.5908. For “EQLGEFYEALDCLRIPK [verified tryptic peptide, vds1]”, the “normalized retention time (NRT)” value amounted to 0.9614.

For the substance “YNGVFQECCQAEDK [verified tryptic peptide, vds1]”, the “normalized retention time (NRT)” value came to 0.3998. Same read-out and setting: the same measure for “TGTCNFDEYFSEGCAPGSPPNSR [verified tryptic peptide, vds1]”: 0.6845; for “RPCFSALTPDETYVPK [verified tryptic peptide, vds1]”: 0.6687; for “DVCKNYQEAK [verified tryptic peptide, vds1]”: 0.08607. Regarding “TSCHTGLGR [verified tryptic peptide, vds1]”, the “normalized retention time (NRT)” value was 0.06527. Consider CLDGSR [verified tryptic peptide, vds1], for which the “normalized retention time (NRT)” value was found to be 0.1101. On the same count and under the same terms, the result for “VGGHAAEYGAEALER [verified tryptic peptide, vds1]” reads 0.3365; that for “EYEATLEECCAK [verified tryptic peptide, vds1]”, 0.3297; that for “LRCASIQK [verified tryptic peptide, vds1]”, 0.1348. In the case of “EQLGEFYEALDCLR [verified tryptic peptide, vds1]”, the “normalized retention time (NRT)” value was determined as 0.8534. The same measure, in the same setting: the same measure for “SLHTLFGDELCK [verified tryptic peptide, vds1]”: 0.6014.

With “GTFAALSELHCDKLHVDPENFK [verified tryptic peptide, vds1]”, the “normalized retention time (NRT)” value is 0.8158.

Consider “WCTISSPEEK [verified tryptic peptide, vds1]”, for which the “normalized retention time (NRT)” value was found to be 0.3623.

On to “CCTESLVNR [verified tryptic peptide, vds1]”, for which the “normalized retention time (NRT)” value is listed as 0.2011.

In the case of “NLQMDDFELLCTDGRR [verified tryptic peptide, vds1]”, the “normalized retention time (NRT)” value is reported as 0.7573.

For “LFTFHADICTLPDTEK [verified tryptic peptide, vds1]”, the “normalized retention time (NRT)” value turned out to be 0.7983. Same read-out and setting: the result for “DEYELLCLDGSR [verified tryptic peptide, vds1]” reads 0.5761; that for “NLQMDDFELLCTDGR [verified tryptic peptide, vds1]”, 0.7853. Still for that read-out and setting: the same measure for “NECFLSHKDDSPDLPK [verified tryptic peptide, vds1]”: 0.4804; for “CCTKPESER [verified tryptic peptide, vds1]”: 0.05163. The same measure, in the same setting: the result for “LKPDPNTLCDEFK [verified tryptic peptide, vds1]” reads 0.5611; that for “GYTLPPHCSR [verified tryptic peptide, vds1]”, 0.2886.
